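These data come from cells grown in 96-well plates and exposed to compound for 48 hours at five concentrations. The concentration for 50% growth inhibition is given as GI50.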 Calls of active or inactive are those of the source. No stated cut-off is given here; in the data, active = GI50 up to about 1.1 µM and inactive = higher.
Tests used:
Assay in all cases: NCI anticancer screen, dose series, 48 h
A549 = tested on: A549
SW-620 = tested on: SW-620
COLO 205 = tested on: COLO 205
HCT-15 = tested on: HCT-15
A498 = tested on: A498
HOP-62 = tested on: HOP-62
SK-MEL-28 = tested on: SK-MEL-28
NCI-H226 = tested on: NCI-H226
CCRF-CEM = tested on: CCRF-CEM
HCT-116 = tested on: HCT-116
UACC-62 = tested on: UACC-62
OVCAR-3 = tested on: OVCAR-3
SK-MEL-2 = tested on: SK-MEL-2
K562 = tested on: K562
RPMI-8226 = tested on: RPMI-8226
NCI-H460 = tested on: NCI-H460
ACHN = tested on: ACHN
T47D = tested on: T47D
SR = tested on: SR
MCF7 = tested on: MCF7

Compound | GI50 (A549) | GI50 (SW-620) | GI50 (COLO 205) | GI50 (HCT-15) [µM] | GI50 (A498) | GI50 (HOP-62) | GI50 (SK-MEL-28) | GI50 (NCI-H226) | GI50 (CCRF-CEM) | GI50 (HCT-116) | GI50 (UACC-62) | GI50 (OVCAR-3) | GI50 (SK-MEL-2) | GI50 (K562) | GI50 (RPMI-8226) | GI50 (NCI-H460) | GI50 (ACHN) | GI50 (T47D) | GI50 (SR) | GI50 (MCF7)
Clc1c2ncccc2cc2nn[nH]c12 | > 100 µM (inactive) | > 100 µM (inactive) | > 100 µM (inactive) | > 100 | > 100 µM (inactive) | > 100 µM (inactive) | > 100 µM (inactive) | 21.3 µM (inactive) | 17.3 µM (inactive) | > 100 µM (inactive) | > 100 µM (inactive) | > 100 µM (inactive) | > 100 µM (inactive) | > 100 µM (inactive) | > 100 µM (inactive) | 49.2 µM (inactive) | > 100 µM (inactive) | > 100 µM (inactive) | 23.3 µM (inactive) | > 100 µM (inactive)
C=CC/C=C/Cc1csc(C(C)(C)C(O)C/C=C/C(=C)CCNC(=O)OC)n1 (stereo not given) | 41.4 µM (inactive) | 26.7 µM (inactive) | 59.7 µM (inactive) | 44.1 | > 60.5 µM (inactive) | > 100 µM (inactive) | > 87.1 µM (inactive) | > 100 µM (inactive) | 34.9 µM (inactive) | 0.679 µM (active) | 44.4 µM (inactive) | 24.8 µM (inactive) | > 100 µM (inactive) | 0.845 µM (active) | 30.7 µM (inactive) | 29.5 µM (inactive) | 49.7 µM (inactive) | > 100 µM (inactive) | 0.492 µM (active) | 96.2 µM (inactive)
COc1cccc(C2ON=C(c3ccccc3)N2C23CC4CC(CC(C4)C2)C3)c1 (stereo not given) | > 10 µM (inactive) | > 10 µM (inactive) | > 10 µM (inactive) | > 10 | > 10 µM (inactive) | > 10 µM (inactive) | > 10 µM (inactive) | 4.63 µM (inactive) | > 10 µM (inactive) | > 10 µM (inactive) | > 10 µM (inactive) | 9.04 µM (inactive) | > 10 µM (inactive) | 8.41 µM (inactive) | 7.24 µM (inactive) | > 10 µM (inactive) | > 10 µM (inactive) | > 10 µM (inactive) | 2.09 µM (inactive) | > 10 µM (inactive)
Cc1cccc(C)c1NC(=O)/C(Cl)=C(/Cl)C(=O)O | 20.7 µM (inactive) | 7.74 µM (inactive) | 7.11 µM (inactive) | 16.2 | 33.5 µM (inactive) | > 62.2 µM (inactive) | 18.3 µM (inactive) | 16.4 µM (inactive) | 2.95 µM (inactive) | 21.1 µM (inactive) | 13.7 µM (inactive) | 20.9 µM (inactive) | 16.7 µM (inactive) | 3.23 µM (inactive) | 11 µM (inactive) | 30.8 µM (inactive) | 15.4 µM (inactive) | 27.9 µM (inactive) | 8.41 µM (inactive) | 20.8 µM (inactive)
CCc1n[nH]c(=O)n1N | > 100 µM (inactive) | > 100 µM (inactive) | > 100 µM (inactive) | > 100 | > 100 µM (inactive) | > 100 µM (inactive) | > 100 µM (inactive) | > 100 µM (inactive) | > 100 µM (inactive) | > 100 µM (inactive) | > 100 µM (inactive) | > 100 µM (inactive) | > 100 µM (inactive) | > 100 µM (inactive) | > 100 µM (inactive) | > 100 µM (inactive) | > 100 µM (inactive) | > 100 µM (inactive) | > 100 µM (inactive) | > 100 µM (inactive)
COC(=O)C1OC(SCCN)C(O)C(O)C1O (stereo not given) | > 100 µM (inactive) | > 100 µM (inactive) | > 100 µM (inactive) | > 100 | > 100 µM (inactive) | > 100 µM (inactive) | > 100 µM (inactive) | > 100 µM (inactive) | > 100 µM (inactive) | > 100 µM (inactive) | > 100 µM (inactive) | > 100 µM (inactive) | > 100 µM (inactive) | > 100 µM (inactive) | > 100 µM (inactive) | > 100 µM (inactive) | > 100 µM (inactive) | > 100 µM (inactive) | > 100 µM (inactive) | > 100 µM (inactive)
